Patent publication US10745382B2 (BRISTOL-MYERS SQUIBB COMPANY, priority 2015, dated 2020)

target: T1, PD-1/PD-L1 (Homo sapiens, UniProt Q9NZQ7); experiment: PD-1/PD-L1 Homogenous Time-Resolved Fluorescence (HTRF) binding assay; conditions: PD-L1-His 10 nM, PD-1-Ig 20 nM; numeric IC50; read-out: Range or IC50
T1 construct: made in house; host or cells: HEK293T
In short: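 Binding measured in dPBS with 0.1% BSA and 0.05% Tween-20, detected by HTRF with europium cryptate anti-Ig (1 nM final) and APC anti-His (20 nM final) added over the binding reaction. Counter-assays used human PD-1-Ig/PD-L2-His (20 and 5 nM) and CD80-His/PD-L1-Ig (100 and 10 nM).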

T1 sequence (Q9NZQ7 with tags, fused parts or gaps): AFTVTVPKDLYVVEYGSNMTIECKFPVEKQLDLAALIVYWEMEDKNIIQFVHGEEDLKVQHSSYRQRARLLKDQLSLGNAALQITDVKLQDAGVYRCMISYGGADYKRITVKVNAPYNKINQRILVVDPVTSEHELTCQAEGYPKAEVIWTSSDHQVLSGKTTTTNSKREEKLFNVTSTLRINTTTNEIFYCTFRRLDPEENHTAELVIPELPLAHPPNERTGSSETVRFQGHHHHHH

IC50 [nM]	SMILES
5	CCN(CCCOc1cccc(-c2cccc(COc3cc(OCc4cncc(C#N)c4)c(CN(CC)C[C@H](O)CO)cc3Cl)c2C)c1Cl)C[C@H](O)CO [Example 2075, 5-((4-chloro-5-((2′-chloro-3′-(3-(((S)-2,3-dihydroxypropyl)(ethyl)amino)propoxy)-2-methyl-[1,1′-biphenyl]-3-yl)methoxy)-2-((((S)-2,3-dihydroxypropyl)(ethyl)amino)methyl)phenoxy)methyl)nicotinonitrile]

same assay, conditions: PD-L1-His 10 nM, PD-1-Ig 20 nM; value given as range class; read-out: Range or IC50

SMILES	IC50 [nM]
Cc1c(COc2cc(OCc3cncc(C#N)c3)c(CN3CCCC[C@H]3C(=O)O)cc2Cl)cccc1-c1cccc(C(=O)N(C)C)c1C [Example 4030, (S)-1-(5-chloro-2-((5-cyanopyridin-3-yl)methoxy)-4-((3′-(dimethylcarbamoyl)-2,2′-dimethyl-[1,1′-biphenyl]-3-yl)methoxy)benzyl)piperidine-2-carboxylic Acid]	100 to 2000
Cc1c(COc2cc(OCc3cncc(S(C)(=O)=O)c3)c(CN3CCCC[C@H]3C(=O)O)cc2Cl)cccc1-c1cccc(OCCCN2CCC(CO)(C(=O)O)C2)c1Cl (single isomer, unassigned) [Example 1062]	0.21 to 10
Cc1c(COc2cc(OCc3cncc(C#N)c3)c(CN(C)C(CO)CO)cc2Cl)cccc1-c1cccc(OCCCN2CC[C@@H](O)C2)c1C [Example 2325, (R)-5-((4-chloro-2-(((1,3-dihydroxypropan-2-yl)(methyl)amino)methyl)-5-((3′-(3-(3-hydroxypyrrolidin-1-yl)propoxy)-2,2′-dimethyl-[1,1′-biphenyl]-3-yl)methoxy)phenoxy)methyl)nicotinonitrile]	0.21 to 10
Cc1c(COc2cc(OCc3cncc(C#N)c3)c(CN3CCCC[C@H]3C(=O)O)cc2Cl)cccc1-c1cccc(C(=O)NCCN2CCS(=O)(=O)CC2)c1C [Example 4004, (S)-1-(5-chloro-2-((5-cyanopyridin-3-yl)methoxy)-4-((3′-((2-(1,1-dioxidothiomorpholino)ethyl)carbamoyl)-2,2′-dimethyl-[1,1′-biphenyl]-3-yl)methoxy)benzyl)piperidine-2-carboxylic Acid]	10 to 100
Cc1c(COc2cc(OCc3cncc(C#N)c3)c(CN3CCCC[C@H]3C(=O)O)cc2Cl)cccc1-c1cccc(OCCCNC[C@@H](O)c2ccccc2)c1C [Example 2221, (2S)-1-(5-chloro-2-((5-cyanopyridin-3-yl)methoxy)-4-((3′-(3-((S)-2-hydroxy-2-phenylethylamino)propoxy)-2,2′-dimethylbiphenyl-3-yl)methoxy)benzyl)piperidine-2-carboxylic Acid]	0.21 to 10
COC(=O)[C@@H]1CCCCN1CCCOc1cccc(-c2cccc(COc3cc(OCc4cncc(C#N)c4)c(CN4CCCC[C@H]4C(=O)O)cc3Cl)c2C)c1C [Example 2243, (2S)-1-(5-chloro-2-((5-cyanopyridin-3-yl)methoxy)-4-((3′-(3-((S)-2-(methoxycarbonyl)piperidin-1-yl)propoxy)-2,2′-dimethylbiphenyl-3-yl)methoxy)benzyl)piperidine-2-carboxylic Acid]	0.21 to 10
CC(CO)(CO)NCc1cc(Cl)c(OCc2cccc(-c3cccc(OCCCN4CC[C@@H](O)C4)c3Cl)c2Cl)cc1OCc1cccc(Cl)c1 [Example 2066, (R)-2-((5-chloro-2-((3-chlorobenzyl)oxy)-4-((2,2′-dichloro-3′-(3-(3-hydroxypyrrolidin-1-yl)propoxy)-[1,1′-biphenyl]-3-yl)methoxy)benzyl)amino)-2-methylpropane-1,3-diol]	0.21 to 10

Further lines, results first:

IC50 [nM]	SMILES
0.21 to 10	Cc1c(COc2cc(OCc3cncc(C#N)c3)c(CNC(C)(CO)CO)cc2Cl)cccc1-c1cccc(OCCCN2CCC[C@H](CO)C2)c1C [Example 2295, (S)-5-((4-chloro-2-(((1,3-dihydroxy-2-methylpropan-2-yl)amino)methyl)-5-((3′-(3-(3-(hydroxymethyl)piperidin-1-yl)propoxy)-2,2′-dimethyl-[1,1′-biphenyl]-3-yl)methoxy)phenoxy)methyl)nicotinonitrile]
0.21 to 10	Cc1c(CCCCN2CC[C@@H](O)C2)cccc1-c1cccc(COc2cc(OCc3cncc(C#N)c3)c(CN3C[C@@H](O)C[C@H]3C(=O)O)cc2Cl)c1C [Example 4063, (2S,4S)-1-(5-chloro-2-((5-cyanopyridin-3-yl)methoxy)-4-((3′-(4-((R)-3-hydroxypyrrolidin-1-yl)butyl)-2,2′-dimethyl-[1,1′-biphenyl]-3-yl)methoxy)benzyl)-4-hydroxypyrrolidine-2-carboxylic Acid]
0.21 to 10	Cc1c(COc2cc(OCc3cncc(C#N)c3)c(CN3CCCC[C@H]3C(=O)O)cc2Cl)cccc1-c1cccc(OCCCN2CC[C@@H](O)C2)c1 [Example 1013, (S)-1-(5-chloro-2-((5-cyanopyridin-3-yl)methoxy)-4-((3′-(3-((R)-3-hydroxypyrrolidin-1-yl)propoxy)-2-methyl-[1,1′-biphenyl]-3-yl)methoxy)benzyl)piperidine-2-carboxylic Acid]
0.21 to 10	Cc1ccc(COc2cc(OCc3cccc(-c4cccc(OCCCN5CC[C@@H](O)C5)c4C)c3C)c(Cl)cc2CNC(CO)CO)cc1C [Example 4505, (R)-2-((5-chloro-2-((3,4-dimethylbenzyl)oxy)-4-((3′-(3-(3-hydroxypyrrolidin-1-yl)propoxy)-2,2′-dimethyl-[1,1′-biphenyl]-3-yl)methoxy)benzyl)amino)propane-1,3-diol]
0.21 to 10	Cc1c(COc2cc(OCc3cncc(C#N)c3)c(CN[C@H](C(=O)O)C(C)C)cc2Cl)cccc1-c1cccc(OCCCN2CC[C@@H](O)C2)c1C [Example 4150, (5-chloro-2-((5-cyanopyridin-3-yl)methoxy)-4-((3′-(3-((R)-3-hydroxypyrrolidin-1-yl)propoxy)-2,2′-dimethyl-[1,1′-biphenyl]-3-yl)methoxy)benzyl)-L-valine]
0.21 to 10	Cc1c(COc2cc(OCc3cncc(C#N)c3)c(CN(C)C[C@H](O)CO)cc2Cl)cccc1-c1cccc(OCCCN(C)C[C@H](O)CO)c1C [Example 2271, 5-((4-chloro-2-((((S)-2,3-dihydroxypropyl)(methyl)amino)methyl)-5-((3′-(3-(((S)-2,3-dihydroxypropyl)(methyl)amino)propoxy)-2,2′-dimethylbiphenyl-3-yl)methoxy)phenoxy)methyl)nicotinonitrile]
0.21 to 10	Cc1c(COc2cc(OCc3cncc(C#N)c3)c(CN3CCCC[C@H]3C(=O)O)cc2Cl)cccc1-c1cccc(OCCCN2CC[C@@H](F)C2)c1C [Example 3057, (S)-1-(5-chloro-2-((5-cyanopyridin-3-yl)methoxy)-4-((3′-(3-((R)-3-fluoropyrrolidin-1-yl)propoxy)-2,2′-dimethyl-[1,1′-biphenyl]-3-yl)methoxy)benzyl)piperidine-2-carboxylic Acid]
0.21 to 10	Cc1c(CCCCN2CC[C@@H](O)C2)cccc1-c1cccc(COc2cc(OCc3cncc(C#N)c3)c(CNC(CO)(CO)CO)cc2Cl)c1C [Example 4066, (R)-5-((4-chloro-2-(((1,3-dihydroxy-2-(hydroxymethyl)propan-2-yl)amino)methyl)-5-((3′-(4-(3-hydroxypyrrolidin-1-yl)butyl)-2,2′-dimethyl-[1,1′-biphenyl]-3-yl)methoxy)phenoxy)methyl)nicotinonitrile]
